Assay results taken from patent publication US4985433A, “2-amino-7-(pyridinylmethyl)-3H,5H-pyrrolo[3,2-d]pyrimidin-4-ones and pharmaceutical uses and compositions containing the same” (BioCryst, Inc., priority 1989, dated 1991).

Test system: plasma inosine
Assay: Plasma inosine after intraperitoneal injection in Lewis Rats (HPLC of plasma extract)
Assay type: in vivo
Conditions: intraperitoneal injection in aqueous carrier with ten percent DMSO, 30 mg twice per day, versus vehicle controls, plasma taken at specific times after administration
Experimental: A pharmaceutical composition for intraperitoneal injection is prepared for testing the compound (IA). An intraperitoneal injection solution containing the compound of Example 8 is dissolved in an aqueous carrier that contains ten percent DMSO.
The compound (IA) is intraperitoneally injected into Lewis Rats via the test composition of Example 21 to provide 30 mg of the compound (IA), with an injection given twice per day. Controls are used, which receive only the vehicle. At specific times after administration, the animals are sacrificed and plasma samples are prepared. The plasma is extracted with cold 0.5N HClO4 and neutralized with solid NH4 HCO3. After removal of perchlorate salts, the extract is subjected to HPLC on a reversed phase column (Spherisorb ODSI).
Compounds prepared as in Examples 10-20 are each made into a pharmaceutical formulation in accordance with the preparation of Example 21 and the resultant injectable solutions are tested in accordance with the procedure of Example 22.

**Q.** With `Nc1nc2c(Cc3cccnc3)c[nH]c2c(=O)[nH]1` [compound (IA), 2-amino-7-(3-pyridinylmethyl)-3H,5H-pyrrolo[3,2-d]pyrimidin-4-one] as the compound, how does the plasma inosine read?
**A.** significant increase
